# Reference: US6051589A, “Diphenyloxazoline derivatives” (Bayer Aktiengesellschaft, priority 1994, dated 2000)
# Like-named read-outs stand apart in the source and are kept apart here.
# How the values were obtained:
# [1] = partition coefficient log p (octanol/water); assay type: physicochemical
# [2] = system: red spider mite Tetranychus urticae; experiment: Tetranychus Test (OP resistant/dipping treatment); assay type: in vivo; conditions: after 7 days, concentration of active compound 0.01%, all developmental stages, bean plants, OP resistant
# Procedure: Tetranychus Test (OP resistant/dipping treatment)
# Solvent: 7 parts by weight of dimethylformamide
# (§1) Emulsifier: 1 part by weight of alkylaryl polyglycol ether
# To produce a suitable preparation of active compound, 1 part by weight of active compound is mixed with the stated amount of solvent and the stated amount of emulsifier, and the concentrate is diluted with emulsifier-containing water to the desired concentrations.
# Bean plants (Phaseolus vulgaris) which are heavily infested with all developmental stages of the red spider mite Tetranychus urticae are dipped in a preparation of the active compound of the desired concentration.
# After the desired time, the action in percent is determined. 100% means that all the spider mites have been killed, 0% means that none of the spider mites have been killed.
# [3] = system: mustard beetle larvae (Phaedon cochleariae); experiment: Phaedon Larvae Test; assay type: in vivo; conditions: concentration of active compound 0.1%, cabbage leaves, read-out: degree of mortality
# Procedure: Solvent: 3 parts by weight of dimethylformamide
# as §1
# To produce a suitable preparation of active compound, 1 part by weight of active compound is mixed with the stated amount of solvent and the stated amount of emulsifier, and the concentrate is diluted with water to the desired concentration.
# After the desired time, the destruction in % is determined. 100% means that all the beetle larvae have been killed; 0% means that none of the beetle larvae have been killed.
SMILES,"logD ([1]; pH 7.5, read-out: log p)",degree of mortality [2] [%],mortality at 0.1 % [3] [%],"logD ([1]; pH: 7.4, read-out: partition coefficient log p (octanol/water))"
CC(C)Cc1ccc(C2COC(c3c(F)c(F)cc(F)c3F)=N2)cc1 (stereo not shown) [Example 12],5.35,,,
CC(C)(C)c1ccc(C2COC(c3cc(F)c(F)c(F)c3F)=N2)cc1 (stereo not shown) [Example 4],4.78,,,
CC(C)(C)c1ccc(C2COC(c3c(F)ccc(F)c3F)=N2)cc1 (stereo not shown) [Example 8],4.45,,,
CC(C)(C)c1ccc(C2COC(c3cc(F)c(Cl)cc3Cl)=N2)cc1 (stereo not shown) [Example 6],5.65,,,
CC(C)(C)c1ccc(C2COC(c3c(F)cc(C(F)(F)F)cc3F)=N2)cc1 (stereo not shown) [Example 9],5.13,,,
CC(C)(C)c1ccc(C2COC(c3c(F)c(F)c(F)c(F)c3F)=N2)cc1 (stereo not shown) [Example 3],5.12,,,
Cc1ccc(C2COC(c3c(F)c(F)cc(F)c3F)=N2)cc1 (stereo not shown) [Example 14],3.69,,,
CC(C)(C)c1ccc(C2COC(c3c(F)cc(F)cc3F)=N2)cc1 (stereo not shown) [Example 7],4.43,,,
COc1c(F)cc(F)c(F)c1C1=NC(c2ccc(C(C)(C)C)cc2)CO1 (stereo not shown) [Example 2],4.59,98,65,
CC(C)(C)c1ccc(C2COC(c3cc(F)c(F)cc3F)=N2)cc1 (stereo not shown) [Example 5],4.78,98,,
"CC(C)(C)c1ccc(C2COC(c3c(F)c(F)cc(F)c3F)=N2)cc1 (stereo not shown) [Example 1, 4-(4-tert-butylphenyl)-2-(2,3,5,6-tetrafluorophenyl)-1,3-oxazoline]",,98,65,4.7
